Test results: paper PMC8688955 (Frontiers in Pharmacology, 2021)

Key:
CP-AMPARs = test: Whole-cell patch-clamp of kainate-induced currents in isolated striatal giant interneurons; format: cell-based, Wistar rat; details: −80 mV; for CP-AMPARs % inhibition at 100 µM: 100 µM compound, currents induced by 100 µM kainate, mean ± SD, N = 5
Procedure: All experimental procedures were approved by the Animal Care and Use Committee of the I.M. Sechenov Institute of Evolutionary Physiology and Biochemistry of the Russian Academy of Sciences. Wistar rats (13–19 days old) were anesthetized with sevoflurane and then decapitated. Maximum effort was made to minimize the number of animals used. Brains were removed quickly and cooled to 2–4°C in an ice bath. […] Single neurons were freed from slices by vibrodissociation ([Vorobjev, 1991]). The antagonism of CP-AMPARs was studied on striatal giant interneurons ([Bernard et al., 1997]; [Gotz et al., 1997]), which were identified by their shape and size. […] The antagonism of CI-AMPARs was studied on pyramidal neurons from the CA1 area of the hippocampus.
(§1) Series resistance of about 20 MΩ was compensated by 70–80% and monitored during experiments. Currents were recorded using an EPC-8 amplifier (HEKA Electronics, Lambrecht, Germany), filtered at 5 kHz, sampled, and stored on a personal computer. Drugs were applied using the RSC-200 perfusion system (BioLogic Science Instruments, Claix, France) under computer control. The solution exchange time in the whole-cell mode was 50–60 ms. The extracellular solution contained (in mM) NaCl 143, KCl 5, MgCl2 2.0, CaCl2 2.5, D-glucose 18, and HEPES 10 (pH was adjusted to 7.3 with HCl). The pipette solution contained (in mM) CsF 100, CsCl 40, NaCl 5, CaCl2 0.5, EGTA 5, and HEPES 10 (pH was adjusted to 7.2 with CsOH). Experiments were performed at room temperature (22–24°C). […] Lamotrigine, topiramate, levetiracetam, felbamate, carbamazepine, tiagabin, vigabatrin, zonisamide, and gabapentin were purchased from Tocris Bioscience (Bristol, United Kingdom). Perampanel was from MedChemExpress (Stockholm, Sweden). Kinetics of transient processes of more than 20-ms duration was approximated by exponential functions. Experiments were performed at −80 mV holding voltage. All experimental data are presented as mean ± SD estimated from at least four experiments. Significance of the effects was tested with paired t test. Differences were considered significant at p < 0.05. 3D structures of compounds were calculated by the ZMM software (zmmsoft.ca).

AMPAR = test system: AMPAR; set-up: method as in Dudic and Reiner, 2019; details: ref Dudic and Reiner, 2019; cited from earlier work
CI-AMPARs = target: T1, CI-AMPARs (Rattus norvegicus, UniProt P19491, Q607R); test: Whole-cell patch-clamp of kainate-induced currents in isolated hippocampal CA1 pyramidal neurons; format: cell-based, Wistar rat; details: currents induced by 100 µM kainate, −80 mV, mean ± SD, N = 5; for CI-AMPARs % inhibition at 100 µM: 100 µM compound; for inhibition at 100 µM: read-out: CI-AMPARs % inhibition at 100 µM, 100 µM compound
T1 construct: activity against native calcium-permeable AMPA receptors (CP-AMPARs) and calcium-impermeable AMPA receptors (CI-AMPARs); endogenous in cells; host or cells: acutely isolated pyramidal neurons from the CA1 area of Wistar rat hippocampal slices
Procedure: All experimental procedures were approved by the Animal Care and Use Committee of the I.M. Sechenov Institute of Evolutionary Physiology and Biochemistry of the Russian Academy of Sciences. Wistar rats (13–19 days old) were anesthetized with sevoflurane and then decapitated. Maximum effort was made to minimize the number of animals used. Brains were removed quickly and cooled to 2–4°C in an ice bath. […] The antagonism of CI-AMPARs was studied on pyramidal neurons from the CA1 area of the hippocampus.
as §1, with “The extracellular solution contained (in mM) NaCl 143, KCl 5, MgCl2 2.0, CaCl2 2.5, D-glucose 18, and HEPES 10 (pH was adjusted to 7.3 with HCl).” left out

[1] = test system: postsynaptic AMPA receptors; set-up: method as in Lee et al., 2008; details: 30 and 100 µM lamotrigine; ref Lee et al., 2008; cited from earlier work
hGluA1-4 receptors = test system: hGluA1-4 receptors; set-up: method as in Fukushima et al. (2020); details: ref Fukushima et al. (2020); cited from earlier work
AMPA receptors = test system: AMPA receptors; set-up: method as in Carunchio et al., 2007; details: 200 µM levetiracetam; ref Carunchio et al., 2007; cited from earlier work
[2] = test system: AMPA and kainate-evoked Ca^2+ uptake; details: 30 and 100 µM topiramate; ref Poulsen et al., 2004; cited from earlier work

T1 sequence (P19491 22-883 Q607R): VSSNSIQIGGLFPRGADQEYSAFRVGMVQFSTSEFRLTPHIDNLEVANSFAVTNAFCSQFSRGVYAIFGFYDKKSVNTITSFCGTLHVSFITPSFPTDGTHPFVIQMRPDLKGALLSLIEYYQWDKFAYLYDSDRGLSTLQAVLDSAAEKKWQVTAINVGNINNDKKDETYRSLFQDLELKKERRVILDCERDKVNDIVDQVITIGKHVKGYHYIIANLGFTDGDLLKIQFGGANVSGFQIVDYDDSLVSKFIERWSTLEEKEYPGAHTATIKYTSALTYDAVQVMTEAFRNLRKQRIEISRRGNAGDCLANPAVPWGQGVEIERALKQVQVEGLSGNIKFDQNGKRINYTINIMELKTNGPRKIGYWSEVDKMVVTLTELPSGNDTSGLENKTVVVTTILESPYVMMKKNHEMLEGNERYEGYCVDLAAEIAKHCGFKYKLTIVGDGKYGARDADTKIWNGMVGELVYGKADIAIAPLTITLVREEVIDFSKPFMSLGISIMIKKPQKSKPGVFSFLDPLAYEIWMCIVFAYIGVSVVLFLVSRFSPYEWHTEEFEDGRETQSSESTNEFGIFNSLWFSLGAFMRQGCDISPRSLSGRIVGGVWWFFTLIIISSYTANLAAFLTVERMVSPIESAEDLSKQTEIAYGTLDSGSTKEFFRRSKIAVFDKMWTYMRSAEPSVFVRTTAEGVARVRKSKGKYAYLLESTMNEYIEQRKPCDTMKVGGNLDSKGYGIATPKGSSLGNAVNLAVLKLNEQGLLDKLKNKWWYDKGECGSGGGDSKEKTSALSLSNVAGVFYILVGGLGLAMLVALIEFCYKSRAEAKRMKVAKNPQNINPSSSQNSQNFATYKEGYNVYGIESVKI

O=c1[nH]c2cc([N+](=O)[O-])c([N+](=O)[O-])cc2[nH]c1=O [DNQX]
IC50 (CP-AMPARs; read-out: IC50 CP-AMPARs, kainate-induced currents, Hill equation): 0.31 ± 0.06 µM | pH-dependence (AMPAR): Yes ^a

Nc1nnc(-c2cccc(Cl)c2Cl)c(N)n1 [Lamotrigine]
CI-AMPARs % inhibition at 100 µM (CI-AMPARs): 14 ± 5% | inhibition at 100 µM (CI-AMPARs): ≤ 20% | CP-AMPARs % inhibition at 100 µM (CP-AMPARs): 13 ± 3% | CP-AMPARs % inhibition at 100 µM (CP-AMPARs; listed as lamotrigine): ≤ 20% | decrease of the amplitude of the currents induced by exogenously applied AMPA [1]: 10% | activity against hGluA1-4 receptors (hGluA1-4 receptors): did not find significant activity

CC[C@@H](C(N)=O)N1CCCC1=O [Levetiracetam]
CI-AMPARs % inhibition at 100 µM (CI-AMPARs): 6 ± 2% | CI-AMPARs % inhibition at 100 µM (CI-AMPARs; listed as levetiracetam): ≤ 20% | CP-AMPARs % inhibition at 100 µM (CP-AMPARs): 9 ± 3% | CP-AMPARs % inhibition at 100 µM (CP-AMPARs; listed as levetiracetam): ≤ 20% | decrease of the amplitude of kainate-induced current (AMPA receptors): about 26% | activity against hGluA1-4 receptors (hGluA1-4 receptors): did not find significant activity

CC1(C)O[C@@H]2[C@@H](CO[C@@]3(COS(N)(=O)=O)OC(C)(C)O[C@@H]23)O1 [Topiramate]
CI-AMPARs % inhibition at 100 µM (CI-AMPARs): 12 ± 2% | inhibition at 100 µM (CI-AMPARs): ≤ 20% | CP-AMPARs % inhibition at 100 µM (CP-AMPARs): 14 ± 2% | CP-AMPARs % inhibition at 100 µM (CP-AMPARs; listed as topiramate): ≤ 20% | activity against hGluA1-4 receptors (hGluA1-4 receptors): did not find significant activity | inhibition of AMPA and kainate-evoked Ca^2+ uptake [2]: up to 60%
